In the supplement of paper PMC11451515:

Tested on: NOMO1
Experiment: cell viability relative to DMSO control; higher = less cytotoxic
Conditions: 48 h
Outline: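 Viability is expressed as a percentage of DMSO wells within each plate, and cell-free wells serve as background. Seeding densities in the 1536-well plates (5 μl) were 500 cells/well for NOMO1 or SEM leukemia cells and 1000 cells/well for P12-Ichikawa. Each line was adapted for at least four passages in each medium. Library compounds in DMSO were pin-dosed at 47 μM to 0.79 nM (11 points, threefold), and CellTiter-Glo One luminescence was read after 48 h at 37°C.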

[1] = HPLM + 10% dialyzed FBS, 0.000781 µM
[2] = HPLM + 10% dialyzed FBS, 0.00234 µM
[3] = HPLM + 10% dialyzed FBS, 0.00702 µM
[4] = HPLM + 10% dialyzed FBS, 0.0211 µM
[5] = HPLM + 10% dialyzed FBS, 0.0632 µM
[6] = HPLM + 10% dialyzed FBS, 0.19 µM
[7] = HPLM + 10% dialyzed FBS, 0.569 µM
[8] = HPLM + 10% dialyzed FBS, 1.71 µM
[9] = HPLM + 10% dialyzed FBS, 5.12 µM
[10] = HPLM + 10% dialyzed FBS, 15.4 µM
[11] = HPLM + 10% dialyzed FBS, 46.1 µM
[12] = RPMI 5 mM glucose + 10% FBS, 0.000781 µM
[13] = RPMI 5 mM glucose + 10% FBS, 0.00234 µM
[14] = RPMI 5 mM glucose + 10% FBS, 0.00702 µM
[15] = RPMI 5 mM glucose + 10% FBS, 0.0211 µM
[16] = RPMI 5 mM glucose + 10% FBS, 0.0632 µM
[17] = RPMI 5 mM glucose + 10% FBS, 0.19 µM
[18] = RPMI 5 mM glucose + 10% FBS, 0.569 µM
[19] = RPMI 5 mM glucose + 10% FBS, 1.71 µM
[20] = RPMI 5 mM glucose + 10% FBS, 5.12 µM
[21] = RPMI 5 mM glucose + 10% FBS, 15.4 µM
[22] = RPMI 5 mM glucose + 10% FBS, 46.1 µM
[23] = RPMI 5 mM glucose + 10% dialyzed FBS, 0.000781 µM
[24] = RPMI 5 mM glucose + 10% dialyzed FBS, 0.00234 µM
[25] = RPMI 5 mM glucose + 10% dialyzed FBS, 0.00702 µM
[26] = RPMI 5 mM glucose + 10% dialyzed FBS, 0.0211 µM
[27] = RPMI 5 mM glucose + 10% dialyzed FBS, 0.0632 µM
[28] = RPMI 5 mM glucose + 10% dialyzed FBS, 0.19 µM
[29] = RPMI 5 mM glucose + 10% dialyzed FBS, 0.569 µM
[30] = RPMI 5 mM glucose + 10% dialyzed FBS, 1.71 µM
[31] = RPMI 5 mM glucose + 10% dialyzed FBS, 5.12 µM
[32] = RPMI 5 mM glucose + 10% dialyzed FBS, 15.4 µM
[33] = RPMI 5 mM glucose + 10% dialyzed FBS, 46.1 µM

SMILES	cell viability [1]	cell viability [2]	cell viability [3]	cell viability [4]	cell viability [5]	cell viability [6]	cell viability [7]	cell viability [8]	cell viability [9]	cell viability [10]	cell viability [11]	cell viability [12]	cell viability [13]	cell viability [14]	cell viability [15]	cell viability [16]	cell viability [17]	cell viability [18]	cell viability [19]	cell viability [20]	cell viability [21]	cell viability [22]	cell viability [23]	cell viability [24]	cell viability [25]	cell viability [26]	cell viability [27]	cell viability [28]	cell viability [29]	cell viability [30]	cell viability [31]	cell viability [32]	cell viability [33]
CCCCCCNC(=O)N1\C=C(F)/C(=O)NC1=O	117%	136%	124%	127%	128%	137%	122%	124%	118%	94.6%	79.9%	111%	119%	136%	109%	109%	114%	129%	127%	122%	115%	83.9%	124%	136%	124%	122%	110%	128%	130%	120%	110%	82.3%	69.6%
NCCCC(N)(C(=O)O)C(F)F (stereo unspecified)												123%	137%	122%	125%	132%	111%	125%	120%	109%	107%	95.1%	121%	112%	115%	113%	126%	112%	108%	125%	100%	111%	90.1%
C[S+](=O)([O-])Oc1ccc2c(NC(N)=O)c(C(=O)c3ccc(Cl)cc3Cl)oc2c1	115%	103%	114%	113%	140%	139%	127%	128%	105%	100%	42.7%	105%	111%	104%	115%	120%	119%	125%	117%	115%	106%	50.3%	127%	111%	122%	126%	119%	116%	115%	128%	135%	105%	76.8%
CN(C)c1nc(Cc2ccc(NC(=O)c3ccc(C(F)(F)F)cc3)cc2)nc(N(C)C)c1CC(=O)O	120%	101%	107%	94.5%	119%	112%	103%	96.2%	107%	108%	91.1%	93%	88.6%	87.1%	82.7%	99.4%	89.4%	95.7%	96.6%	86%	91.8%	85.5%	96.1%	95.2%	96.2%	94.1%	91.6%	97.8%	98%	99.8%	96.9%	86.9%	86.8%
Cc1nc(-c2ccc(OCC(C)C)c(C#N)c2)sc1C(=O)O	104%	123%	127%	128%	142%	126%	153%	137%	140%	118%	138%	111%	128%	119%	121%	137%	129%	138%	137%	117%	131%	118%	120%	123%	120%	116%	132%	131%	122%	125%	125%	125%	129%
CCOC(=O)c1c(C)n(C)c2ccc(O)cc12																							115%	120%	115%	113%	125%	119%	124%	120%	108%	101%	96.6%
CN1C(=O)/C(=C(NC2=CC=C(I)C=C2F)\C3=C1\N=C/N(C[C@@H](O)CO)C3=O)F	68.9%	64.9%	72.1%	58.8%	48.5%	48.8%	41.3%	33.7%	30.2%	36.2%	26.4%	69.9%	77.6%	78.7%	52.5%	48%	45.7%	31.1%	34.6%	30.7%	37.8%	32.7%	69.2%	60%	71.1%	46%	48.9%	41.7%	37.5%	33.7%	32.7%	31.8%	29.5%
CNc1nc(-c2ccc3c(N)n[nH]c3c2)cc(N2C[C@@H](C(=O)NC3CCCCC3)CC[C@H]2C)n1	76.9%	82.3%	79.8%	95%	94.8%	89.2%	68.2%	64.5%	55.9%	64.2%	17.7%	73.9%	78%	76.2%	80.4%	89.3%	80.3%	77.1%	84.2%	69.9%	73.8%	19%	75.9%	91.8%	79.2%	92.5%	90.2%	85.5%	70.3%	70.8%	68.2%	68.2%	29.7%
